{"source": "paper PMC6325219", "about": "“Preclinical Characterization of NVR 3-778, a First-in-Class Capsid Assembly Modulator against Hepatitis B Virus” (Antimicrobial Agents and Chemotherapy, 2018)", "key": {"[1]": {"assay": "Cell viability of HepG2.2.15 cells (ATP levels, CellTiter-Glo)", "type": "cell-based", "details": "human, HepG2.2.15 cells, ATP levels, CellTiter-Glo", "experimental": "(§1) In combination studies, cells were treated with compounds either alone or in combination after combining the compounds in a checkerboard format. In studies examining the effect of human serum, serially diluted NVR 3-778 was added into cell culture medium containing 0% to 40% human serum (BioreclamationIVT). Cells were incubated with the compounds for 3 days, after which the medium was removed, fresh medium containing the compounds was added to the cells, and the cells were incubated for another 3 days prior to harvesting of the supernatants or cells for antiviral assays. To quantify intracellular encapsidated rcDNA or encapsidated pgRNA, cells were first solubilized using lysis buffer containing 1% NP-40 and 10 mM CaCl2. The cytoplasmic fraction was then treated with S7 nuclease (6 units) to remove nonencapsidated nucleic acids, after which the S7 nuclease was inactivated by the addition of EDTA (0.5 M). […] The levels of HBV DNA were determined by a bDNA assay as described above (Affymetrix). Supernatants or cell lysates containing HBV RNA were treated with proteinase K (2.5 µg) at 50°C for 40 min, transferred to a capture plate containing HBV RNA probe sets, and hybridized overnight at 55°C. Captured HBV RNA was measured by the addition of a chemiluminescent substrate using a QuantiGene assay (Affymetrix). […] At day 6, the CellTiter-Glo reagent was added to the cells and viability was determined according to the manufacturer’s protocol (Promega). Luminescence signals were measured at 0.2 s using a Victor X4 multimode plate reader (PerkinElmer)."}, "HBV GT E": {"test_system": "HBV GT E", "assay": "Transient-transfection antiviral study in HepG2 cells, GT E", "type": "cell-based", "details": "Hepatitis B virus, HepG2, 72 h, read-out: EC50 (mean), HBV GT E", "quoted_text": "(§2) Cells were cotransfected with the HBV plasmids (100 ng/well) and a Gaussia expression plasmid (10 ng/well) (Thermo Scientific) using the Lipofectamine LTX Plus transfection reagent (Life Technologies). Transfection mixtures were removed after overnight incubation, and cells were treated with serially diluted NVR 3-778 at a final dimethyl sulfoxide (DMSO) concentration of 0.5%. After 3 days of incubation with the compound, the supernatants were collected and secreted Gaussia luciferase was measured using a Gaussia Flash luciferase assay kit (Thermo Scientific). […] Samples were diluted into lysis buffer (Affymetrix) containing 2.5 µg proteinase K (Affymetrix) at 50°C for 40 min. Intracellular encapsidated HBV DNA was denatured for 30 min at 25°C in 0.2 M NaOH (Sigma) and incubated with HBV DNA probes designed to hybridize to the minus-strand HBV DNA (Affymetrix). The denatured DNA was subsequently detected using a QuantiGene assay kit, according to the branched DNA (bDNA) assay recommended by the manufacturer (Affymetrix)."}, "[2]": {"test_system": "HBV core protein variant T109S", "assay": "Transient-transfection antiviral study in HepG2 cells, core variant T109S", "type": "cell-based, hepatitis B virus", "quoted_text": "as §2"}, "HBV": {"test_system": "HBV", "assay": "Effect of human serum on antiviral activity in HepG2.2.15 cells", "type": "cell-based, hepatitis B virus (GT D)", "details": "for EC50 / EC90: Hepatitis B virus, HepG2.2.15, 144 h, HepG2.2.15 cells, 6 days", "experimental": "To determine the effect of human protein binding on NVR 3-778 antiviral activity, HepG2.2.15 cells were incubated with increasing concentrations of NVR 3-778 in the presence of 0% to 40% human serum.\nas §1, with “(PerkinElmer). […]” for “(PerkinElmer).”\nFigure S3. Effect of human serum on NVR 3-778 antiviral activities. HepG2.2.15 cells were incubated with increasing concentrations of NVR 3-778 for 6 days in the presence of 0% (●), 10% […]\nHBV DNA concentrations were determined from supernatant and compared to untreated cells containing the corresponding concentration of human serum. Data points represent mean values from at least three independent antiviral studies, and standard deviations are shown as error bars."}, "[3]": {"details": "2% human serum as printed in the table (text: 20%) versus without human serum"}, "[4]": {"details": "10% human serum versus without human serum"}, "[5]": {"details": "0% human serum, supernatant HBV DNA"}, "[6]": {"details": "2% human serum as printed in the table (text: 20%)"}, "[7]": {"details": "10% human serum, supernatant HBV DNA"}, "[8]": {"details": "40% human serum, supernatant HBV DNA"}}}
{"molecule": "O=C(Nc1cc(F)c(F)c(F)c1)c1ccc(F)c(S(=O)(=O)N2CCC(O)CC2)c1", "note": "[NVR 3-778]", "values": [{"measurement": "CC50 at 6 days", "setting": "[1]", "result": 14.5, "unit": "µM"}, {"measurement": "EC50", "setting": "HBV GT E", "result": 0.58, "unit": "µM"}, {"measurement": "EC50", "setting": "[2]; Hepatitis B virus, HepG2, read-out: EC50, core variant T109S", "result": "0.77 ± 0.27", "unit": "µM"}, {"measurement": "EC50 FC, T109S", "setting": "[2]; ratio of mean EC50 for core variant over wild-type HBV", "result": 3.3, "unit": "fold"}, {"measurement": "EC50 fold shift", "setting": "HBV; 0% human serum (reference)", "result": 1}, {"measurement": "EC90 fold shift", "setting": "HBV; 0% human serum (reference)", "result": 1.0}, {"measurement": "EC50 fold shift", "setting": "HBV; [3]", "result": 9.3}, {"measurement": "EC90 fold shift", "setting": "HBV; [3]", "result": 10.3}, {"measurement": "EC50 fold shift", "setting": "HBV; [4]", "result": 4.5}, {"measurement": "EC90 fold shift", "setting": "HBV; [4]", "result": 4.5}, {"measurement": "EC90 fold shift", "setting": "HBV; 40% human serum versus without human serum", "result": 15.2}, {"measurement": "EC50", "setting": "HBV; [5]", "result": "0.4 ± 0.1", "unit": "µM"}, {"measurement": "EC90", "setting": "HBV; [5]", "result": "1.5 ± 0.41", "unit": "µM"}, {"measurement": "EC50", "setting": "HBV; [6]", "result": "3.7 ± 1", "unit": "µM"}, {"measurement": "EC90", "setting": "HBV; [6]", "result": "15.9 ± 6.3", "unit": "µM"}, {"measurement": "EC50", "setting": "HBV; [7]", "result": "1.8 ± 0.51", "unit": "µM"}, {"measurement": "EC90", "setting": "HBV; [7]", "result": "6.9 ± 0.9", "unit": "µM"}, {"measurement": "EC50", "setting": "HBV; [8]", "result": "6.3 ± 2", "unit": "µM"}, {"measurement": "EC90", "setting": "HBV; [8]", "result": "23.5 ± 11.6", "unit": "µM"}]}
